The record followed here is PubChem BioAssay AID686920 (Broad Institute, 2013).

This assay has as its system A673 NR0B1-luciferase reporter, viability-normalised luminescence. Kind of assay: suppressors of NR0B1-promoter luciferase reporter, dose response, EWS/Fli inhibitor project, luciferase luminescence, A673 cells, cherry-pick (AID 686920). For orientation: Reporter assays use an easily measured gene product as a stand-in for the process of interest.

Molecules are shown by their SMILES.

On to `COC(=O)Cc1[nH]n(-c2nc3ccccc3s2)c(=O)c1C(C)=Nc1ccc(C)cc1`, for which the AC35 was 0.17 µM.

With `C[C@H]1CN([C@@H](C)CO)C(=O)c2cc(N(C)C)ccc2O[C@@H]1CN(C)Cc1ccc(C(=O)Nc2ccccc2N)cc1`, the AC35 is 9.36 µM.

Consider `O=c1ccc2[n+]([O-])c3ccc(O)cc3oc-2c1`, for which the AC35 is 3.7 µM.

Consider `COC(=O)CC1(C(=O)OC)Oc2ccc(Br)cc2C(=O)N1c1cccc(Cl)c1Cl` (centres undefined), for which the AC35 is 15 µM.

For `Cc1ccc(S(=O)(=O)N(C)C[C@@H]2Oc3ccc(NC(=O)CCCCCC(=O)Nc4ccccc4N)cc3CC(=O)N([C@@H](C)CO)C[C@@H]2C)cc1`, the AC35 is 11 µM.

For `Cc1cc(Br)ccc1N=C1C(=O)Nc2ccccc21`, the AC35 was 5.12 µM.

Regarding `O=c1c(Cl)cc(Cl)nn1-c1ccccc1`, the AC35 was 8.95 µM.

On to `Cc1cc2sc3ccc(C#CC4(O)CCCCC4)cc3c(=O)c2cc1C`, for which the AC35 is under 0.03 µM.

For `C=C1C(=O)C=C[C@]2(C)C[C@@H]3OC(=O)[C@](C)(O)[C@H]3C[C@@H]12`, the AC35 is 10.7 µM.

For `O=C(Sc1cccc2cccnc12)c1ccccc1Br`, the AC35 is 16.6 µM.

In the case of `COc1ccc(/C=C2\Oc3ccccc3C2=O)cc1`, the AC35 was 8.51 µM.

As for `O=C(NCc1cccnc1)C1Cc2c(-c3ccc(Cl)cc3)ccnc2O1` (centres undefined), the AC35 was 6.04 µM.

Turning to `C[C@H]1CN([C@@H](C)CO)C(=O)Cc2cc(NC(=O)CCCCCC(=O)Nc3ccccc3N)ccc2O[C@H]1CN(C)Cc1ccc(Cl)c(Cl)c1`, the AC35 is 4.68 µM.

As to `CN(C)c1ccc(N=Nc2ccccc2Br)cc1`, the AC35 is 21.3 µM.

In the case of `COc1ccc(C(=O)Nc2cccc(C(=O)N/N=C/c3ccc(OC)cc3OC)c2)cc1`, the AC35 was 31.2 µM.

`Oc1c(Cl)cc(Cl)c(Cl)c1Cc1c(O)c(Cl)cc(Cl)c1Cl`: the AC35 was 35.3 µM.

As to `CCCN1C/C(=C/c2ccc3c(c2)OCO3)C(=O)/C(=C/c2ccc3c(c2)OCO3)C1`, the AC35 was 3.4 µM.

Take `Cc1ccc(S(=O)(=O)Nc2ccc3c(c2)C(=O)N([C@@H](C)CO)C[C@@H](C)[C@@H](CN(C)Cc2ccc(C(=O)Nc4ccccc4N)cc2)O3)cc1`: the AC35 is 6.44 µM.

On to `CO[C@H]1CN(C)C(=O)c2cc(NC(=O)c3ccc(Oc4ccccc4)cc3)ccc2OC[C@H](C)NC[C@@H]1C`, for which the AC35 is 26.5 µM.

On to `N#C[C@H]1[C@H](c2ccc(C#Cc3ccccc3F)cc2)[C@@H](CO)N1C(=O)C1CCOCC1`, for which the AC35 was 34 µM.

`O=C(/C=C/c1cc(Br)ccc1O)c1ccco1`: the AC35 is 10.7 µM.

`C[C@H](CO)N1C[C@H](C)[C@H](CN(C)Cc2ccc(C(=O)Nc3ccccc3N)cc2)Oc2ccc(NS(=O)(=O)c3cccs3)cc2C1=O`: the AC35 was 11.6 µM.

Take `COc1ccc(NS(=O)(=O)c2cc(NC(=O)CNC(=O)c3cccc(OC)c3)ccc2C)cc1`: the AC35 was 66.3 µM.

As to `Cc1nn(Cc2ccccc2Cl)c2sc(C(=O)Nc3ccccc3N3CCOCC3)cc12`, the AC35 is 10.3 µM.

In the case of `COC(=O)C[C@@H]1CC[C@@H]2[C@H](COc3ccc(NC(=O)c4cc(C)on4)cc3C(=O)N2C)O1`, the AC35 was 7 µM.

As for `Cc1ccc(/C=N/Nc2ccc3ccccc3n2)o1`, the AC35 is 4.21 µM.

In the case of `CCOc1ccc2nc(NC3=NC(c4ccc(OC)cc4)CC(=O)N3)nc(C)c2c1` (centres undefined), the AC35 is 9.3 µM.

Consider `COC1C(O)C(C)OC(OC2CCC3(C)C(CCC4C3C(O)CC3(C)C(C5=CC(=O)OC5)CCC43O)C2)C1O` (centres undefined), for which the AC35 is 0.183 µM.

In the case of `S=c1[nH]nc(-c2cc(-c3ccccc3)n[nH]2)n1/N=C/C(Br)=C/c1ccccc1`, the AC35 was 10.4 µM.

For the compound `COc1ccc(/C=C2\SC(=S)N(CCCC(=O)NC3CCCC3)C2=O)cc1OC`, the AC35 is 38.5 µM.

With `CCC1=Nc2cc(C(=O)NCC3CCCO3)ccc2Sc2ccc(Br)cc21` (centres undefined), the AC35 is 6.5 µM.

Take `CC(=O)ON=C1C=CC(=C(C#N)c2ccccc2)C=C1`: the AC35 is 13.3 µM.

With `O=C(NCc1ccc(F)cc1)N1[C@H]2CC[C@@H]1C=C(c1ccc(F)cc1OCc1ccccc1)C2`, the AC35 is 9.93 µM.

Consider `COc1ccc(Nc2ncnc3ccc(Br)cc23)c(OC)c1`, for which the AC35 was 5.94 µM.

Take `COc1ccc(C=NNc2nc3ccccc3s2)cc1`: the AC35 was 6.43 µM.

Take `CN1C(=O)c2cc(NC(=O)c3ccc(Cl)cc3)ccc2OC[C@@H]2O[C@@H](CC(=O)NCc3cccc(F)c3)CC[C@H]21`: the AC35 was 7.86 µM.

Turning to `CCOC(=O)Cc1ccc(NC(=O)c2ccccc2Br)cc1`, the AC35 is 4.18 µM.

Regarding `CN(C)c1ccc(-c2ccnc3c2CC(C)(C(=O)NCc2ccco2)O3)cc1` (centres undefined), the AC35 is 6.85 µM.

Regarding `COc1ccc(Nc2oc(COc3ccccc3OC)nc2C#N)cc1`, the AC35 was 6.24 µM.

As to `O=C(CN1C(=O)C(=O)c2ccccc21)c1ccc(Cl)cc1`, the AC35 was 34.2 µM.

As for `CC(=O)Nc1cccc(-c2ccnc3c2CC(C)(C(=O)NCc2ccc(N(C)C)cc2)O3)c1` (centres undefined), the AC35 is 7.51 µM.

For `C[C@@H]1CN([C@H](C)CO)C(=O)Cc2cc(NC(=O)CCCCCC(=O)Nc3ccccc3N)ccc2O[C@@H]1CN(C)CC1CCCCC1`, the AC35 is 7.74 µM.

As for `COc1ccc(N=C2C(=O)Nc3ccc(C)c(Br)c32)cc1`, the AC35 was 10 µM.

`C(=N\Nc1nc2ccccc2s1)/c1ccccn1`: the AC35 was 0.77 µM.

With `O=C(COC(=O)c1ccc[nH]c1=O)Nc1ccc(N2CCCCC2)cc1`, the AC35 is 0.283 µM.

For the compound `CCC(C)Cn1c(O)cc2nn(-c3nc4ccccc4s3)c(=O)c-2c1C` (centres undefined), the AC35 is 1.57 µM.

Regarding `O=C(CN1C(=O)c2ccccc2S1(=O)=O)c1ccc(F)cc1`, the AC35 is 3.98 µM.

On to `COc1ccc(S(=O)(=O)N2CC[C@@H]3[C@H](CO)Nc4ccc(-c5ccc(C#N)cc5)cc4[C@@H]32)cc1`, for which the AC35 was 4.3 µM.

Regarding `COC(=O)c1cccc(NC(=O)NC(=O)c2ccc(Cl)cc2)c1`, the AC35 was 0.225 µM.

Take `C[C@@H]1CN([C@@H](C)CO)C(=O)c2cc(NS(=O)(=O)c3ccc(Cl)cc3)ccc2O[C@@H]1CN(C)Cc1ccc(C(=O)Nc2ccccc2N)cc1`: the AC35 was 7.36 µM.

With `C=C(C(=O)c1ccccc1)C(C(=C)C(=O)c1ccccc1)c1ccc(OC)cc1`, the AC35 was 4.37 µM.

Turning to `COc1ccc(CCCNC(=O)C2Cc3c(-c4ccc5c(c4)OCO5)ccnc3O2)cc1` (centres undefined), the AC35 is 10.5 µM.

Take `COc1ccc(S(=O)(=O)Nc2cccc3c2O[C@H](CN(C)Cc2ccc(C(=O)Nc4ccccc4N)cc2)[C@H](C)CN([C@@H](C)CO)C3=O)cc1`: the AC35 was 5.64 µM.

On to `COc1ccc(/C=C(/C(=O)c2cccs2)N2C=CC=CC2=C(C#N)C#N)cc1`, for which the AC35 was 37.2 µM.

`CC(=O)Oc1ccc(-c2ccc(C(=O)Nc3cccc(S(=O)(=O)N4CCOCC4)c3)cc2)cc1`: the AC35 is 12.9 µM.

`COc1cc(C(=O)N2CCC(N3CCN(C)CC3)CC2)ccc1Nc1ncc2c(n1)N(C)c1ccccc1C(=O)N2C`: the AC35 is 4.75 µM.

Regarding `Cc1ccc(NC(=O)CCN2CCCCC2)cc1`, the AC35 is 26.1 µM.

Take `O=C1NC(=O)N(Cc2ccc(F)cc2)C(=O)/C1=C\C=C\c1ccco1`: the AC35 was 7.32 µM.

With `C[C@@H]1CN([C@@H](C)CO)C(=O)c2cc(NC(=O)Nc3ccccc3)ccc2O[C@@H]1CN(C)Cc1ccc(C(=O)Nc2ccccc2N)cc1`, the AC35 was 5.75 µM.

As for `CCOC(=O)C1CCCCN1C(=O)CCc1c(C)nc2cc(-c3ccccc3)nn2c1C` (centres undefined), the AC35 was 1.16 µM.

For `C[C@@H]1CN([C@H](C)CO)C(=O)c2cc(NC(=O)CCCCCC(=O)Nc3ccccc3N)ccc2O[C@@H]1CN(C)Cc1ccc(Cl)c(Cl)c1`, the AC35 is 5.24 µM.

In the case of `CC(C)N1C/C(=C/c2ccsc2)C(=O)/C(=C/c2ccsc2)C1`, the AC35 is 5.52 µM.

Regarding `N#CC1C=Cc2c(ccc3ccccc23)N1C(=O)c1ccccc1` (centres undefined), the AC35 was 0.692 µM.

`N#C[C@H]1[C@H](c2ccc(-c3ccccc3F)cc2)[C@@H](CO)N1C(=O)c1ccccn1`: the AC35 is 9.49 µM.

For `Oc1[nH]c2ccc(Br)cc2c1N=NC(=S)N1CCOCC1`, the AC35 is 26.5 µM.

For `CCCCNC1=CC(=O)C(=O)c2ccccc21`, the AC35 is 6.17 µM.

Turning to `COc1cc(/C=N/NS(=O)(=O)c2ccc3ccccc3c2)ccc1OCc1ccc(C(=O)O)cc1`, the AC35 was 2.91 µM.

For `CCCCCCCCCCCCCCCCCCNc1ccn(C2OC(COP(=O)(O)OCC3OC(n4cc(F)c(=O)[nH]c4=O)CC3O)C(O)C2O)c(=O)n1` (centres undefined), the AC35 was 18.8 µM.

In the case of `O=C(CCCN1C(=O)/C(=C/c2ccccc2Cl)SC1=S)NNC(=O)c1ccc(Cl)cc1Cl`, the AC35 was 3.4 µM.

Take `C[C@@H]1CN([C@@H](C)CO)C(=O)Cc2cc(NC(=O)C3CCCCC3)ccc2O[C@H]1CN(C)Cc1ccc(C(=O)Nc2ccccc2N)cc1`: the AC35 was 29.1 µM.

As for `Cc1cc(C)cc(C(=O)NC(=S)Nc2ccc(Cc3ccncc3)cc2)c1`, the AC35 is 7.99 µM.

Regarding `N#CC(=C1C=CC(=NO)C(Cl)=C1)c1ccccc1`, the AC35 is 5.85 µM.

In the case of `C[C@@H]1CN([C@@H](C)CO)S(=O)(=O)c2ccc(C#Cc3ccncc3)cc2O[C@H]1CN(C)S(=O)(=O)c1ccccc1`, the AC35 is 15.2 µM.

Regarding `N#C[C@@H]1[C@H](c2ccc(C#Cc3cccc(F)c3)cc2)[C@@H](CO)N1C(=O)C1CCCC1`, the AC35 is 4.38 µM.

With `CN1C2CCC1/C(=C/c1ccccn1)C(=O)/C2=C\c1ccccn1`, the AC35 was 1.87 µM.

As for `COCCCNc1ccn2nc(-c3ccccc3)cc2n1`, the AC35 is 10.1 µM.

As for `Cc1ccc(C(C(=O)NCc2ccco2)N(C(=O)CNC(=O)c2cccs2)c2c(C)cc(C)cc2C)cc1` (centres undefined), the AC35 is 42 µM.

For the compound `CC(C)NC(=O)N(C)C[C@@H]1Oc2cc(C#Cc3ccc(F)cc3)ccc2S(=O)(=O)N([C@H](C)CO)C[C@H]1C`, the AC35 was 33.9 µM.

In the case of `Cc1nn(-c2ccc(F)cc2)c2nc(N)c(C#N)c(-c3ccc(O)c(O)c3)c12`, the AC35 was 22.2 µM.

In the case of `C[C@@H]1CN([C@@H](C)CO)C(=O)Cc2cc(N(C)C)ccc2O[C@@H]1CN(C)Cc1ccccc1`, the AC35 was 7.99 µM.

Take `CC1(C(=O)NCc2ccco2)Cc2c(-c3cccc(C(N)=O)c3)ccnc2O1` (centres undefined): the AC35 was 5.37 µM.

Consider `C[C@H](CO)N1C[C@H](C)[C@H](CN(C)CC2CCCCC2)Oc2ccc(NC(=O)CCCCCC(=O)Nc3ccccc3N)cc2CC1=O`, for which the AC35 was 4.96 µM.

As to `C[C@@H]1CN([C@H](C)CO)C(=O)c2cc(N(C)C)ccc2O[C@H]1CN(C)Cc1ccc(C(=O)Nc2ccccc2N)cc1`, the AC35 was 9.4 µM.

For the compound `CC(C)=CCC/C(C)=C/CN1C(=O)N(c2ccc(F)cc2)[C@H]2C[C@@H](c3ccccc3)[C@@H](C)[C@@H](C(=O)N3CCOCC3)C[C@H]21`, the AC35 was 7.8 µM.
